PMC6269433, “Biocatalytic production of adiponitrile and related aliphatic linear α,ω-dinitriles” (Nature Communications, 2018)

Tests used:
Type in all cases: cell-based
OxdA [1] = molecular target: T1, OxdA (Pseudomonas chlororaphis, UniProt Q7WSJ4); assay: whole-cell dehydration to adiponitrile, GC; settings: E. coli resting cells, 50 mM potassium phosphate pH 7.0, 30 °C, argon, with or without 20% DMSO; activity only per bio wet weight
T1 construct: recombinant in E. coli, resting whole cells; plasmid details only in supplement; ferrous heme enzyme
T1 sequence (Q7WSJ4 1-352): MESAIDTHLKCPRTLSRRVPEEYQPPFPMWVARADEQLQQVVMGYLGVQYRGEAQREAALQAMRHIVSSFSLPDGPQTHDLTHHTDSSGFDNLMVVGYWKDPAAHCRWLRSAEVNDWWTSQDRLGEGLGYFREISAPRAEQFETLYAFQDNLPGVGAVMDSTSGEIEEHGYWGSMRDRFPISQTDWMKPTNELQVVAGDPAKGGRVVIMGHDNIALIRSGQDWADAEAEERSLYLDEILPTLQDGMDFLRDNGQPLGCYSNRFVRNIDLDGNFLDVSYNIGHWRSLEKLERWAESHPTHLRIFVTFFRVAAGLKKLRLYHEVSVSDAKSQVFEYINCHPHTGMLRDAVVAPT

OxdB [2] = molecular target: T2, OxdB (Bacillus sp. OxB-1, UniProt P82604); assay: whole-cell dehydration to adiponitrile, GC; settings: E. coli resting cells, 50 mM potassium phosphate pH 7.0, 30 °C, argon, with or without 20% DMSO; activity only per bio wet weight
T2 construct: gene oxd; recombinant in E. coli, resting whole cells; plasmid details only in supplement; ferrous heme enzyme
T2 sequence (P82604 2-351): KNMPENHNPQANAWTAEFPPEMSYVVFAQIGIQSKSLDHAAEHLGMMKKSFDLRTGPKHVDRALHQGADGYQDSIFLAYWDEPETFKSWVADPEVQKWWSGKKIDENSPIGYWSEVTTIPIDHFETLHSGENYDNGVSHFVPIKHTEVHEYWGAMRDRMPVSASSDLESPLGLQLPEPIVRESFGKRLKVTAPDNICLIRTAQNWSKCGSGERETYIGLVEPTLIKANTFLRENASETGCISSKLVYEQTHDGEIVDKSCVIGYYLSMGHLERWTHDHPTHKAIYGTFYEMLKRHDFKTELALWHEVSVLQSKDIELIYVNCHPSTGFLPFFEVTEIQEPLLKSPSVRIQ

OxdA [3] = molecular target: T1, OxdA; assay: whole-cell dehydration to the dinitrile, analytical scale; settings: E. coli resting cells; substrate 3.0-75 mM range; activity only per bio wet weight
OxdB [4] = molecular target: T2, OxdB; assay: as above; settings: E. coli resting cells; substrate 3.0-75 mM range; activity only per bio wet weight

Row | SMILES | whole-cell dehydration to adiponitrile, GC (OxdA [1]) | whole-cell dehydration to adiponitrile, GC (OxdB [2]) | whole-cell dehydration to the dinitrile, analytical scale (OxdA [3]) | whole-cell dehydration to the dinitrile, analytical scale (OxdB [4])
1 | ON=CCCCCC=NO [1d, adipaldehyde dioxime] | the C6-C10-dialdoximes (1d-h) were converted by both Oxds completely with excellent efficiency | the C6-C10-dialdoximes (1d-h) were converted by both Oxds completely with excellent efficiency |  | 
2 | ON=CCCCCCCC=NO [1f, C8-dialdoxime] |  |  | the C6-C10-dialdoximes (1d-h) were converted by both Oxds completely with excellent efficiency | the C6-C10-dialdoximes (1d-h) were converted by both Oxds completely with excellent efficiency
